Tests used:
[1] = system: primary culture myocardium cell damaged by adriamycin; experiment: Effect of CMPC against adriamycin injury of primary culture myocardium cell (MTT); assay type: cell-based, Neonatal SD rat
Description: Remove the fibroblast through differential adhesion and chemistry method, and inoculate myocardium cell on the 96-well plates.
2.1.2 The Against Function of Cmpc to Injury of Adriamycin to Primary Culture Myocardium Cell.
Cell culture method is the same as 2.1.1
Preparation of model: Blank Control Group: cultivating myocardium cell with DMEM-H-15;
Model Group: adding 1 mg/L adriamycin, washing the plate with DMEM-H-15 two times after being cultivated for 1 h, adding DMEM-H-15 for cultivation;
Protective rate=(Ax−Amodel)/(Acontrol−Amodel)×100%;
(Ax, Amode, Acontrol respectively represent Absorbance value of Drug administration groups, Model Group and Blank control group.

[2] = system: primary culture myocardium cell damaged by hypoxia/reoxygenation; experiment: Anti-hypoxia/reoxygenation injury effect on primary culture myocardium cell (MTT); assay type: cell-based, Neonatal SD rat
From the text: Take ventricle from Neonatal SD rat, wash with D-Hank's and cut to small pieces, digest with collagenase II to obtain the myocardium cell and fibroblast, which are cultivated with high glucose DMEM (dmem-h-15) culture medium containing 15% fetal bovine serum. Remove the fibroblast through differential adhesion and chemistry method, and inoculate myocardium cell on the 96-well plates.
2.1.3 Anti-Hypoxia/Reoxygenation Injury Effect of CMPC to Primary Culture Myocardium Cell.
Cell cultivation method is the same as that in 2.1.1
Preparation of model: Preparing the model by using the myocardium cell cultured for 48˜72 h, dividing the cell on the culture plate to following groups: Control Group, Model Group, Verapamil Group (2, 0.4, 0.08 mg/l final concentration) and CMPM Group (final concentration of 50, 10, 2, 0.4, 0.08, 0.016, 0.0032 mg/l), 3 wells for every group. Except the Control Group, the other groups are prepared by following method: placing the monolayer myocardium cell on center of culture plate on low glucose medium (containing Verapamil or CMPM with corresponding concentration), then placing the culture plate into the vacuum drying machine, filling nitrogen, and hermetically culturing, causing myocardial injury after oxygen lack for 15 hours, then being cultured for 1 hour by high glucose DMEM medium (95% atmosphere and 5% CO2) to cause reoxygention injury. Measuring the absorbance value at 540 nm by using MTT method, and the same as above, calculating the protective rate to figure out EC50.

[3] = system: ischemia/reperfusion damaged rat; experiment: Therapeutic administration, ischemia/reperfusion (LAD ligation) rat model; assay type: in vivo, SD rat; settings: therapeutic i.v. 5 minutes after ligation, Dosage 1.0 mg/kg
Description: (§1) Intraperitoneal injecting 6% Urethane with 20 ml/kg to anaesthetize the animal, fixing the animal on operating table in supine position; being connected with the electrocardiograph to detect the limb II lead electrocardiogram, tracheal intubating and connecting the animal with respirators, taking continuous positive end-expiratory pressure with tidal volume of 6 ml/200 g, frequency of 55/min and breathing ratio of 2:1. Carrying out thoracotomy on the gap between the forth and the fifth ribs of the left border of sternum, separating the ribs and removing the pericardium. Ligating at the left anterior descending coronary artery by using 6/0 silk suture by the sign of left auricle lower margin, and setting a piece of polyethylene pipe with diameter of 1 mm between the ligation silk suture and blood vessel. Ligating the silk suture to press the left anterior descending coronary artery by the polyethylene pipe and cause myocardial ischemia. Taking part of myocardium becoming grey and electrocardiogram S-T segment raising as the sign of that the left anterior descending coronary artery is ligated successfully. Taking out the polyethylene pipe carefully to cause the reperfusion. Verifying the success of reoxygenation by reactive hyperemia of ischemia area and the descending of the raised S-T segment by ½. Reoxygenation for 30 minutes, then sampling blood from abdominal aorta to prepare serum which is used to measure the biochemical index (measuring the content of CK, LDH, MDA, SPD according to the Reagent kits Instruction).
(§2) Rat's heart was taken and after being blooded, the residual blood in the ventricle was cleaned by normal saline to weight the weight of whole heart. Fat was removed, the heart was crosscut into 4˜5 pieces and was put into a tube, to be carried out NBT dye at 37° C. (dying the normal tissue rather than the ischemic tissue), taking photographs. The ischemic area of the myocardium was cut to take a weighing, and then the myocardial infarct size (MIS) was calculated by the ratio of weight of the ischemic area of the myocardium to whole heart weight, which was present by percentage.
The drug was intravenously injured on the tail 5 minutes after ligation of LAD, then reperfusion was carried out for 30 min 30 minutes after ligation of LAD. Heart was taken after sampling blood from abdominal aorta. The biochemical index and the myocardial infarction size were measure by using the above method.

[4] = system: ischemia/reperfusion damaged rat; experiment: Preventive administration, ischemia/reperfusion (LAD ligation) rat model; assay type: in vivo, SD rat; settings: preventive i.v. 30 min before ligation, Dosage 1.0 mg/kg
Description: 70 SD rats (250˜300 g per rat) were taken, wherein, 60 rats were divided into 6 groups evenly and randomly according to weight, every 10 of each group, the remains are kept for replacement of dead animals of each group.
Normal Control Group: carrying out sham operation, threading a silk suture through the left anterior descending coronary artery (LAD) without ligation;
Model Group: intravenous injecting saline solution of 5 ml/kg 30 minutes before ligation, and the preparation of hypoxia/reoxygenation model is the same as Normal Control Group;
Positive Control Group: intravenous injecting Verapamil of 1 ml/kg 30 min before ligation, preparation of the hypoxia/reoxygenation model is the same as Normal Control Group. […]
Preparation of the Model:
as §1, §2

Compound: COc1ccc(CCN(C)CCCC(C#N)(c2ccc(OC)c(OC)c2)C(C)C)cc1OC (stereo not shown) [Positive Control Group, Verapamil, reference compound]
- % (protective rate) ([1]; Plate 1, Dosage 0.08 mg/L): 31.53%
- A540 ([1]; Plate 1, Dosage 0.08 mg/L): 0.694 ± 0.110
- % (protective rate) ([1]; Plate 1, Dosage 0.4 mg/L): 50.23%
- A540 ([1]; Plate 1, Dosage 0.4 mg/L): 0.714 ± 0.021
- % (protective rate) ([1]; Plate 1, Dosage 2 mg/L): 46.83%
- A540 ([1]; Plate 1, Dosage 2 mg/L): 0.710 ± 0.099
- % (protective rate) ([1]; Plate 2, Dosage 0.08 mg/L): 30.45%
- A540 ([1]; Plate 2, Dosage 0.08 mg/L): 0.749 ± 0.031
- % (protective rate) ([1]; Plate 2, Dosage 0.4 mg/L): 30.29%
- A540 ([1]; Plate 2, Dosage 0.4 mg/L): 0.749 ± 0.050
- % (protective rate) ([1]; Plate 2, Dosage 2 mg/L): 46.68%
- A540 ([1]; Plate 2, Dosage 2 mg/L): 0.767 ± 0.045
- % (protective rate) ([1]; Plate 3, Dosage 0.08 mg/L): 30.09%
- A540 ([1]; Plate 3, Dosage 0.08 mg/L): 0.755 ± 0.021
- % (protective rate) ([1]; Plate 3, Dosage 0.4 mg/L): 37.28%
- A540 ([1]; Plate 3, Dosage 0.4 mg/L): 0.770 ± 0.012
- % (protective rate) ([1]; Plate 3, Dosage 2 mg/L): 36.18%
- A540 ([1]; Plate 3, Dosage 2 mg/L): 0.768 ± 0.013
- % (protective rate) ([2]; Plate 1, Dosage 0.08 mg/L): 14.16%
- A540 ([2]; Plate 1, Dosage 0.08 mg/L): 0.524 ± 0.036
- % (protective rate) ([2]; Plate 1, Dosage 0.4 mg/L): 20.15%
- A540 ([2]; Plate 1, Dosage 0.4 mg/L): 0.541 ± 0.029
- % (protective rate) ([2]; Plate 1, Dosage 2 mg/L): 12.87%
- A540 ([2]; Plate 1, Dosage 2 mg/L): 0.520 ± 0.060
- % (protective rate) ([2]; Plate 2, Dosage 0.08 mg/L): 23.85%
- A540 ([2]; Plate 2, Dosage 0.08 mg/L): 0.553 ± 0.031
- % (protective rate) ([2]; Plate 2, Dosage 0.4 mg/L): 33.18%
- A540 ([2]; Plate 2, Dosage 0.4 mg/L): 0.579 ± 0.028
- % (protective rate) ([2]; Plate 2, Dosage 2 mg/L): 29.63%
- A540 ([2]; Plate 2, Dosage 2 mg/L): 0.569 ± 0.029
- % (protective rate) ([2]; Plate 3, Dosage 0.08 mg/L): 30.62%
- A540 ([2]; Plate 3, Dosage 0.08 mg/L): 0.787 ± 0.020
- % (protective rate) ([2]; Plate 3, Dosage 0.4 mg/L): 35.44%
- A540 ([2]; Plate 3, Dosage 0.4 mg/L): 0.795 ± 0.022
- % (protective rate) ([2]; Plate 3, Dosage 2 mg/L): 41.37%
- A540 ([2]; Plate 3, Dosage 2 mg/L): 0.805 ± 0.018
- CK ([3]; rat serum): 1.777 ± 0.389 U/ml
- LDH ([3]; rat serum): 6791.96 ± 570.85 U/L
- MDA ([3]; rat serum): 4.960 ± 0.338 nmol/mL
- SOD ([3]; rat serum): 140.36 ± 14.00 U/ml
- MIS (myocardial infarct size) [3]: 4.07 ± 1.56 %
- MIS (myocardial infarct size) ([4]; ischemic area weight/whole heart weight): 4.19 ± 0.70 %
- CK ([4]; rat serum): 2.087 ± 0.432 U/ml
- LDH ([4]; rat serum): 7376.09 ± 784.64 U/L
- MDA ([4]; rat serum): 4.755 ± 0.718 nmol/mL
- SOD ([4]; rat serum): 135.63 ± 7.878 U/ml
